≈ marks a conversion by molar mass, not a printed value.
How the values were obtained:
Assay type in all cases: cell-based
[1] = tested on: Klebsiella pneumoniae HKY402 (SHV-12: Class A); test: MIC by trace quantity liquid dilution method
[2] = tested on: Klebsiella pneumoniae KP1 15 (IMP-1: Class B); test: MIC by trace quantity liquid dilution method
[3] = tested on: C. freundii HKY543; test: MIC by trace quantity liquid dilution method; details: Citrobacter freundii
Description: (§1) Following overnight culturing, the MIC was measured.

[4] = tested on: E. cloacae HKY226; test: MIC by trace quantity liquid dilution method; details: Enterobacter cloacae
Description: as §1

[5] = tested on: E. coli NS12 CMY-2; test: MIC by trace quantity liquid dilution method; details: Escherichia coli, NS12CMY2
Description: as §1

[6] = tested on: K. pneumoniae NCB02189 DHA-1 + CTX-M9; test: MIC by trace quantity liquid dilution method; details: Klebsiella pneumoniae
Description: as §1

[7] = tested on: Klebsiella pneumoniae NU2936 (MOX-1: Class C); test: MIC by trace quantity liquid dilution method
Description: as §1

[8] = tested on: P. aeruginosa NCB03-192; test: MIC by trace quantity liquid dilution method; details: Pseudomonas aeruginosa, NCB03192
Description: as §1

[9] = tested on: S. marcescens S94; test: MIC by trace quantity liquid dilution method; details: Serratia marcescens
Description: as §1

[10] = tested on: E. cloacae HKY226; test: Disk test, CAZ disk versus CAZ + APB disk (second aspect); details: overnight culturing
Description: (§2) In the same manner as in Embodiment 1, the test bacterium was inoculated onto a Mueller-Hinton agar medium, and KB disks (6 mm in diameter) of CAZ were positioned at least 3 cm apart center-on-center. […] After overnight culturing, the diameters of the growth inhibitory zones around the two CAZ disks were measured.

[11] = tested on: C. freundi HKY543; test: as above; details: overnight culturing
Description: as §2

[12] = tested on: K. pneumoniae SHV-12 Class A; test: as above; details: overnight culturing
Description: as §2

Which MIC [1] does the source give for `CC(C)(O/N=C(\C(=O)N[C@@H]1C(=O)N2C(C(=O)[O-])=C(C[n+]3ccccc3)CS[C@H]12)c1csc(N)n1)C(=O)O` [CAZ, ceftazidime] here?
The MIC was over 512 µg/mL.

And the MIC [2]?
The MIC was 256 µg/mL (≈ 468 µM).

And the MIC [3]?
The MIC was 64 µg/mL (≈ 117 µM).

What about the MIC [4] of the same compound?
Its MIC is 256 µg/mL (≈ 468 µM).

And the MIC [5]?
The MIC was 64 µg/mL (≈ 117 µM).

And the MIC [6]?
Its MIC is 64 µg/mL (≈ 117 µM).

And the MIC [7]?
Its MIC is 64 µg/mL (≈ 117 µM).

What about the MIC [8] of the same compound?
Its MIC is 16 µg/mL (≈ 29.3 µM).

And the MIC [9]?
The MIC was 64 µg/mL (≈ 117 µM).

And the “Inhibitory zone around the disk” value [10]?
The value was “No inhibitory zone was observed around”.

And the “Inhibitory zone around the disk” value [11]?
The value was “A small inhibitory zone was observed”.

What about the “Inhibitory zone around the disk” value [12] of the same compound?
Its value is “No inhibitory zones observed around”.
